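Briefly, cells in 96-well plates were exposed to five compound concentrations for 48 h, and endpoints were estimated by linear interpolation. Here, GI50 denotes the concentration required for 50% inhibition of growth.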 Calls of active or inactive are those of the source. No stated cut-off is given here; in the data, active = GI50 up to about 1.1 µM and inactive = higher.
Assays:
Experiment in all cases: NCI-60 cell line screen, 48 h
XF498 = system: XF498
OVCAR-8 = system: OVCAR-8
KM-20L2 = system: KM-20L2
DMS-273 = system: DMS-273
SK-MEL-28 = system: SK-MEL-28
OVCAR-4 = system: OVCAR-4
HOP-62 = system: HOP-62
OVCAR-5 = system: OVCAR-5
KM12 = system: KM12
HCT-116 = system: HCT-116
OVCAR-3 = system: OVCAR-3
Malme-3M = system: Malme-3M
LOX IMVI = system: LOX IMVI
A549 = system: A549
NCI-H23 = system: NCI-H23
NCI-H226 = system: NCI-H226
SN12C = system: SN12C
SR = system: SR
LXFL 529 = system: LXFL 529
UACC-257 = system: UACC-257
SW-620 = system: SW-620
EKVX = system: EKVX
DLD-1 = system: DLD-1
SF-539 = system: SF-539
HCC 2998 = system: HCC 2998
HOP-18 = system: HOP-18
SNB-78 = system: SNB-78
HCT-15 = system: HCT-15
UACC-62 = system: UACC-62
ACHN = system: ACHN
786-0 = system: 786-0
SNB-19 = system: SNB-19
SK-MEL-5 = system: SK-MEL-5
A498 = system: A498
M14 = system: M14
SF-295 = system: SF-295
UO-31 = system: UO-31
HT-29 = system: HT-29
SK-OV-3 = system: SK-OV-3
SF-268 = system: SF-268
SK-MEL-2 = system: SK-MEL-2
HOP-92 = system: HOP-92
NCI-H460 = system: NCI-H460
U-251 = system: U-251
IGROV-1 = system: IGROV-1
TK-10 = system: TK-10
NCI-H522 = system: NCI-H522
CAKI-1 = system: CAKI-1
RXF 393 = system: RXF 393
SNB-75 = system: SNB-75
DMS-114 = system: DMS-114
COLO 205 = system: COLO 205
MOLT-4 = system: MOLT-4
CCRF-CEM = system: CCRF-CEM
K562 = system: K562
HL-60 = system: HL-60
M19-MEL = system: M19-MEL
RPMI-8226 = system: RPMI-8226
MCF7 = system: MCF7
NCI/ADR-RES = system: NCI/ADR-RES

Measured: GI50

O=C1C(CN2CCCCC2)CCCC1CN1CCCCC1 (stereo unspecified)
inactive: XF498 18.4 µM | OVCAR-8 14.9 µM | KM-20L2 13.3 µM | DMS-273 29.6 µM | SK-MEL-28 13.7 µM | OVCAR-4 > 10 µM | HOP-62 > 100 µM | OVCAR-5 > 59 µM | KM12 > 60.3 µM | HCT-116 14.5 µM | OVCAR-3 17.1 µM | Malme-3M 5.82 µM | LOX IMVI 25.5 µM | A549 > 100 µM | NCI-H23 > 45.1 µM | NCI-H226 > 100 µM | SN12C 26.2 µM | SR 8.93 µM | LXFL 529 15.6 µM | UACC-257 24.9 µM | SW-620 9.89 µM | EKVX 19.9 µM | DLD-1 15.9 µM | SF-539 > 43.2 µM | HCC 2998 > 100 µM | HOP-18 14.7 µM | SNB-78 22.8 µM | UACC-62 > 40.6 µM | ACHN 19.6 µM | 786-0 7.29 µM | SNB-19 > 100 µM | SK-MEL-5 > 31.6 µM | A498 > 100 µM | M14 32.3 µM | SF-295 > 100 µM | UO-31 > 42.2 µM | HT-29 18.8 µM
14.2 µM: HCT-15

CCOC(=O)CSC(=O)NCCCl
inactive: SK-OV-3 > 100 µM | OVCAR-8 > 100 µM | KM-20L2 > 100 µM | DMS-273 > 100 µM | SK-MEL-28 > 100 µM | OVCAR-4 > 100 µM | HOP-62 > 100 µM | SF-268 > 100 µM | SK-MEL-2 > 100 µM | OVCAR-5 > 100 µM | HOP-92 > 100 µM | KM12 > 100 µM | HCT-116 > 100 µM | OVCAR-3 > 100 µM | Malme-3M > 100 µM | NCI-H460 > 100 µM | U-251 > 100 µM | A549 > 100 µM | IGROV-1 > 100 µM | NCI-H23 > 100 µM | NCI-H226 > 100 µM | SN12C > 100 µM | LXFL 529 > 100 µM | UACC-257 > 100 µM | TK-10 > 100 µM | SW-620 > 100 µM | EKVX > 100 µM | DLD-1 > 100 µM | SF-539 > 100 µM | NCI-H522 > 100 µM | HCC 2998 > 100 µM | CAKI-1 > 100 µM | SNB-78 > 100 µM | RXF 393 > 100 µM | UACC-62 > 100 µM | ACHN > 100 µM | 786-0 > 100 µM | SNB-75 > 100 µM | SNB-19 > 100 µM | A498 > 100 µM | M14 > 100 µM | SF-295 > 100 µM | UO-31 > 100 µM | HT-29 > 100 µM | DMS-114 > 100 µM | COLO 205 > 100 µM
> 100 µM: HCT-15

O=C(N/C(=C\c1ccc(Br)cc1)c1nc2ccccc2[nH]1)c1ccccc1
inactive: SK-OV-3 34.6 µM | XF498 15.9 µM | OVCAR-8 21 µM | MOLT-4 17.6 µM | KM-20L2 15.1 µM | DMS-273 24.3 µM | SK-MEL-28 15.8 µM | OVCAR-4 13.3 µM | SK-MEL-2 16.3 µM | OVCAR-5 14.9 µM | HOP-92 11.6 µM | KM12 17.5 µM | OVCAR-3 19.1 µM | Malme-3M 22.9 µM | U-251 17.3 µM | IGROV-1 24.7 µM | NCI-H23 17.1 µM | SN12C 18.4 µM | SR 18.3 µM | LXFL 529 13.6 µM | TK-10 30.1 µM | SW-620 16.1 µM | DLD-1 17.5 µM | NCI-H522 14.5 µM | CCRF-CEM 19.9 µM | HCC 2998 17.2 µM | CAKI-1 23.3 µM | SNB-78 21.9 µM | RXF 393 16.4 µM | UACC-62 18.8 µM | SNB-19 18.4 µM | SK-MEL-5 19.8 µM | M14 18.2 µM | SF-295 28 µM | UO-31 15.6 µM | HT-29 18.1 µM | K562 15.8 µM | COLO 205 18.9 µM
16.3 µM: HCT-15

COc1cc(-c2cc(O)c3cc4c(cc3n2)OCO4)cc(OC)c1OC
inactive: SK-OV-3 37.5 µM | XF498 29.8 µM | OVCAR-8 75.9 µM | MOLT-4 > 100 µM | DMS-273 46.2 µM | SK-MEL-28 > 100 µM | HL-60 > 100 µM | OVCAR-4 > 100 µM | HOP-62 24.5 µM | M19-MEL > 100 µM | SK-MEL-2 92.7 µM | HOP-92 20.7 µM | KM12 > 100 µM | Malme-3M > 100 µM | RPMI-8226 > 100 µM | LOX IMVI 59.3 µM | NCI-H460 > 100 µM | U-251 60 µM | A549 > 100 µM | IGROV-1 > 100 µM | NCI-H23 56.2 µM | SN12C 70.1 µM | SR 71 µM | LXFL 529 > 100 µM | TK-10 > 100 µM | SW-620 > 100 µM | EKVX > 100 µM | DLD-1 > 100 µM | SF-539 54.8 µM | NCI-H522 62.7 µM | CCRF-CEM > 100 µM | HCC 2998 > 100 µM | CAKI-1 > 100 µM | HOP-18 72.8 µM | SNB-78 > 100 µM | UACC-62 51.5 µM | ACHN 34.7 µM | 786-0 > 100 µM | SNB-75 > 100 µM | SNB-19 40.3 µM | SK-MEL-5 > 100 µM | M14 > 100 µM | UO-31 > 100 µM | HT-29 > 100 µM | K562 > 100 µM | COLO 205 > 100 µM
> 100 µM: HCT-15

O=C(O)C(Cc1cccs1)NC(=O)C(F)(F)F (stereo unspecified)
> 100 µM: HCT-15
inactive: SK-OV-3 > 100 µM | OVCAR-8 > 100 µM | MOLT-4 > 100 µM | KM-20L2 > 100 µM | DMS-273 > 100 µM | SK-MEL-28 > 100 µM | HL-60 > 100 µM | OVCAR-4 > 100 µM | HOP-62 > 100 µM | M19-MEL > 100 µM | SF-268 > 100 µM | MCF7 > 100 µM | SK-MEL-2 > 100 µM | OVCAR-5 > 100 µM | HOP-92 > 100 µM | KM12 > 100 µM | HCT-116 > 100 µM | OVCAR-3 > 100 µM | Malme-3M > 100 µM | RPMI-8226 > 100 µM | LOX IMVI > 100 µM | NCI-H460 > 100 µM | U-251 > 100 µM | A549 > 100 µM | IGROV-1 > 100 µM | NCI-H23 > 100 µM | NCI-H226 > 100 µM | SN12C > 100 µM | UACC-257 > 100 µM | SW-620 > 100 µM | EKVX > 100 µM | DLD-1 > 100 µM | SF-539 > 100 µM | NCI-H522 > 100 µM | CCRF-CEM > 100 µM | HCC 2998 > 100 µM | CAKI-1 > 100 µM | HOP-18 > 100 µM | NCI/ADR-RES > 100 µM | RXF 393 > 100 µM | UACC-62 > 100 µM | SNB-75 > 100 µM | SNB-19 > 100 µM | SK-MEL-5 > 100 µM | A498 > 100 µM | SF-295 > 100 µM | UO-31 > 100 µM | HT-29 > 100 µM | DMS-114 > 100 µM | K562 > 100 µM | COLO 205 > 100 µM

COc1ccc(N2C(=O)[C@@H]3[C@H](C2=O)c2[nH]c4ccccc4c2C2CCC(C(C)(C)C)C[C@@H]23)cc1 (stereo partly specified)
inactive: SK-OV-3 18.6 µM | XF498 44.8 µM | OVCAR-8 18 µM | MOLT-4 14.4 µM | KM-20L2 61.9 µM | DMS-273 41.8 µM | SK-MEL-28 34.4 µM | HL-60 > 100 µM | HOP-62 16.5 µM | M19-MEL 46.9 µM | SF-268 29.9 µM | SK-MEL-2 30.4 µM | OVCAR-5 > 100 µM | KM12 38.7 µM | HCT-116 30.5 µM | OVCAR-3 21.5 µM | Malme-3M 30.4 µM | RPMI-8226 22.4 µM | LOX IMVI 22.8 µM | NCI-H460 25.2 µM | U-251 20.9 µM | A549 24.2 µM | IGROV-1 34.1 µM | NCI-H23 22.4 µM | NCI-H226 22.3 µM | SN12C 14 µM | LXFL 529 39.4 µM | UACC-257 40.6 µM | TK-10 28 µM | SW-620 35.2 µM | EKVX 28.4 µM | DLD-1 37.7 µM | SF-539 22.9 µM | NCI-H522 18.5 µM | CCRF-CEM 15.3 µM | HCC 2998 29.5 µM | CAKI-1 27.7 µM | SNB-78 23.7 µM | RXF 393 17.3 µM | UACC-62 19.1 µM | ACHN 24.3 µM | 786-0 14.9 µM | SNB-75 15.9 µM | SNB-19 22.1 µM | SK-MEL-5 41.2 µM | A498 26 µM | M14 29.2 µM | SF-295 12.3 µM | UO-31 > 47.4 µM | HT-29 29.2 µM | K562 14.5 µM | COLO 205 24 µM
> 90.4 µM: HCT-15
